# Assay results from patent US9656984B2, “PI3K/AKT/mTOR inhibitors and pharmaceutical uses thereof” (UNIVERSITE DE RENNES 1, priority 2013, dated 2017).
# How the values were obtained:
# [1] = tested on: PI3K/AKT activity (AKT phosphorylation); test: PI3K/AKT/mTOR pathway inhibitory activity: level of AKT phosphorylation in CEM cells over time; type: cell-based, human; details: 10 μM, FIGS. 7 and 8
# Procedure: The CEM cell was incubated with 10 μM of each mentioned compound of formula (I) for the indicated times and then cells were lysed and 100 μg of protein was loaded per line and resolved by SDS-PAGE. The levels of AKT phosphorylation (hallmark of PI3K activation) and total AKT (loading control) were analyzed by Western blot and the amount of AKT phosphorylation relative to the total amount of protein AKT was quantified by densitometric analysis, the intensity of each band was scanned and the level of AKT phosphorylation was reported to the amount of whole AKT and the percentage of phosphorylated-AKT was depicted.
# (§1) Immunoblots Excepted for immunoprecipitation experiments in which cells were lyzed with RIPA buffer, cells were lyzed for 30 min at 4° C. in Lysis buffer (25 mM HEPES pH 7.4, 1% v/v Triton X-100, 150 mM NaCl, 2 mM EGTA supplemented with a mix of protease inhibitors). Protein concentration was determined by the bicinchoninic acid method (Pierce, Rockford, Ill., USA) according to the manufacturer's protocol. Proteins were resolved by 8, 10 or 12% SDS-PAGE and transferred to a nitrocellulose membrane (GE Healthcare, Buckinghamshire, UK). The membrane was blocked 15 min with TBST (50 mM Tris, 160 mM NaCl, 0.05% v/v Tween 20, pH 7.4) containing 5% w/v dried skimmed milk (TBS™). Primary antibody was incubated overnight at 4° C. in TBS™. The membrane was intensively washed (TBST) and then the peroxydase-labeled anti-mouse IgG1 or IgG2a (CliniSciences, Nanterre, France) was added for 45 min. Proteins were visualized with the enhanced chemiluminescence substrate kit (ECL RevelBIOt®, Ozyme, Saint Quentin en Yvelines, France).
# [2] = tested on: Leukemic T-cell line Jurkat; test: Cytotoxic effect by MTT assay, Jurkat; type: cell-based; details: 24 hours (FIG. 1) or 20 hours (FIG. 6)
# Procedure: (§2) Leukemic T-cell lines Jurkat and CEM were incubated for 24 hours (see FIGS. 1, 2, 3, 4 and 5) or for 20 hours (see FIG. 6) with compounds of formula (I) and with compound A, at the indicated concentrations and cell death was assessed using the viability assay MTT, which estimates the metabolic state of the cell.
# (§3) Cell viability was assessed using the 3-[4,5-dimethylthiazol-2-yl]-2,5-diphenyltetrazolium bromide (MTT) viability assay (1). In brief, cells (4×10^4 per well) were cultured for 20 h in flat-bottomed 96 well plates with various concentrations of the apoptosis inducer. Then 0.015 ml of MTT (5 mg/ml in PBS) was added to each well and incubated for 4 h at 37° C. Formazan salt precipitats were dissolved by adding 0.115 ml of isopropyl alcohol containing 1% formic acid (v/v), and the absorbance was measured at 570 nm.
# Leukemic T-cell line CEM = test: Cytotoxic effect by MTT assay, CEM; type: cell-based; details: 24 hours, FIGS. 2 to 5
# Procedure: as §2, §3
# AKT phosphorylation = test: In cellulo IC50 of AKT phosphorylation in CEM cells (Western blot densitometry); type: cell-based; details: Homo sapiens, CCRF-CEM, 2 hours incubation, AKT phosphorylation vs whole AKT, read-out: In vivo IC50
# Procedure: CEM cells were incubated for 2 hours with the indicated concentrations of each mentioned compound of formula (I). Cells were then lysed and 100 μg of protein was loaded per line in an SDS-PAGE. Bands from AKT phosphorylation and whole AKT observed by Western blot were scanned and quantified by densitometric analysis. Based on these values, an in cellulo IC50 (half maximal inhibitory concentration) was measured for each compound of formula (I).
# as §1
# [3] = tested on: MCF-7 (ER-positive) breast tumor cell line; test: Cell death by MTT assay, MCF-7; type: cell-based, human; details: 24 hours, mean of four experiments
# Procedure: (§4) The ER-positive breast tumor cell lines MCF-7 and T47-D and the HER2 positive breast tumor cell lines MDA-MB-453 and BT474 (also ER-positive) were incubated with the indicated concentration of each mentioned compound of formula (I) for 24 hours and then cell death was assessed using MTT assay.
# (§5) For each cell line, the percentage of cell death (mean of four experiments for cell lines MCF-7 and T47-D, and two experiments for cell lines MDA-MB-453 and BT474) is given in view of the increasing concentration of each tested compound of the invention.
# as §3
# [4] = tested on: T47-D (ER-positive) breast tumor cell line; test: Cell death by MTT assay, T47-D; type: cell-based, human; details: 24 hours, mean of four experiments
# Procedure: as §4, §5, §3
# [5] = tested on: MDA-MB-453 (HER2 positive) breast tumor cell line; test: Cell death by MTT assay, MDA-MB-453; type: cell-based, human; details: 24 hours, mean of two experiments
# Procedure: as §4, §5, §3
# [6] = tested on: BT474 (ER-positive/HER2-positive) breast tumor cell line; test: Cell death by MTT assay, BT474; type: cell-based, human; details: 24 hours, mean of two experiments
# Procedure: as §4, §5, §3
# mTOR = target: T1, mTOR (Homo sapiens, UniProt P42345); test: Biotin pull-down with streptavidin-coated beads from CEM cells, mTOR immunoblot; type: binding; details: 1 μM, CEM leukemic T cells, FIG. 12B
# T1 construct: endogenous in cells; host or cells: CEM leukemic T cells
# Procedure: Compounds 25 and 48 (compound 25 linked to biotin) (1 μM) were incubated with CEM leukemic T cells for indicated times. Then cells were lyzed in RIPA buffer and biotin was immunoprecipitated using streptavidin-coated magnetic beads. Beads were washed and the presence of mTOR was analyzed in compound 48-associated complex by Immunoblotting.
# CEM cells (10^7 cells) were pre-incubated for indicated times with 1 μM of compound 25 or compound 48, washed with PBS and lysed using RIPA buffer [50 mM Tris pH7.4, 1% NP-40, 0.5% Na-deoxycholate, 0.1% SDS, 150 mM NaCl, 2 mM EDTA, inhibitors of protease and phosphatase (Sigma)].
# mTORC2 = mTORC2 (Homo sapiens, UniProt P42345); test: Immunoblot of AKT serine 473 phosphorylation (target of mTORC2); type: cell-based; design: endogenous in cells; details: with increasing compound concentrations, FIG. 12A
# Procedure: (§6) The inhibition of the phosphorylation level of AKT at serine 473, target of mTORC2, and 4EBP1 (also called Eukaryotic translation initiation factor 4E-binding protein 1) at threonines 37/46, which are targets of mTORC1, by compound 48 (compound 25 linked to biotin) was assessed by immunoblotting. Total AKT and 4EBP1 were added as loading controls.
# as §1
# mTORC1 = mTORC1 (Homo sapiens, UniProt P42345); test: Immunoblot of 4EBP1 threonines 37/46 phosphorylation (targets of mTORC1); type: cell-based; design: endogenous in cells; details: with increasing compound concentrations, FIG. 12A
# Procedure: as §6, §1
smiles,measurement,setting,value
"O=C(O)C1=Cc2cc(Br)cc(Br)c2OC1c1ccc(Br)cc1 (stereo not drawn) [Compound 54, 6,8-dibromo-2(4-bromophenyl)-2H-chromene-3-carboxylic acid]",melting point,,256 to 258 °C
"N#CC1=Cc2cc(Br)ccc2OC1c1ccc(Br)cc1 (stereo not drawn) [Compound 61, 6-Bromo-2-(4-bromophenyl)-2H-chromene-3-carbonitrile]",melting point,,136 to 138 °C
CCOc1cccc2c1OC(c1ccc(F)cc1)C([N+](=O)[O-])=C2 (stereo not drawn) [A],inhibitory activity on PI3K/AKT (level of AKT phosphorylation),[1],very weak inhibitory activity
same,percentage of cell death (cytotoxic effect),[2],lower percentage of cell death
same,percentage of cell death (cytotoxic effect),Leukemic T-cell line CEM,lower percentage of cell death
"ON=CC1=Cc2cc(Br)ccc2OC1c1ccc(Br)cc1 (stereo not drawn) [Compound 59, 6-Bromo-2-(4-bromophenyl)-2H-chromene-3-carbaldehyde oxime]",melting point,,158 to 160 °C
"O=CC1=Cc2cc(Br)ccc2OC1c1ccc(Br)cc1 (stereo not drawn) [Compound 44, 6-Bromo-2-(4-bromophenyl)-2H-chromene-3-carbaldehyde]",melting point,,144 to 146 °C
"COC(=O)C1=Cc2cc(Br)ccc2OC1c1ccc(Br)cc1 (stereo not drawn) [Compound 55, Methyl-6-Bromo-2-(4-bromophenyl)-2H-chromene-3-carboxylate]",melting point,,118 to 120 °C
"O=C(O)C1=Cc2cc(Br)ccc2OC1c1ccc(Br)cc1 (stereo not drawn) [Compound 53, 6-bromo-2-(4-bromophenyl)-2H-chromene-3-carboxylic acid]",melting point,,208 to 210 °C
"O=[N+]([O-])C1=Cc2cc(Br)ccc2OC1c1ccc(Cl)cc1 (stereo not drawn) [Compound 10, 6-bromo-2-(4-chloro-phenyl)-3-nitro-2H-chromene]",IC50,AKT phosphorylation,2000 nM
same,percentage of cell death,"[3]; MCF-7, 6.25 μM",0%
same,percentage of cell death,"[3]; MCF-7, 12.5 μM",24.06%
same,percentage of cell death,"[3]; MCF-7, 25 μM",49.08%
same,percentage of cell death,"[3]; MCF-7, 50 μM",81.85%
same,percentage of cell death,[4]; 6.25 μM,4.62%
same,percentage of cell death,[4]; 12.5 μM,87.84%
same,percentage of cell death,[4]; 25 μM,91.71%
same,percentage of cell death,[4]; 50 μM,92.93%
same,percentage of cell death,"[5]; MDA-MB-453, 0.390625 μM",6.6%
same,percentage of cell death,"[5]; MDA-MB-453, 0.78125 μM",7.8%
same,percentage of cell death,"[5]; MDA-MB-453, 1.5625 μM",5.06%
same,percentage of cell death,"[5]; MDA-MB-453, 3.125 μM",70.42%
same,percentage of cell death,"[5]; MDA-MB-453, 6.25 μM",76.17%
same,percentage of cell death,"[5]; MDA-MB-453, 12.5 μM",93.07%
same,percentage of cell death,"[5]; MDA-MB-453, 25 μM",98.46%
same,percentage of cell death,"[5]; MDA-MB-453, 50 μM",99.07%
same,percentage of cell death,"[6]; BT474, 6.25 μM",0%
same,percentage of cell death,"[6]; BT474, 12.5 μM",40.42%
same,percentage of cell death,"[6]; BT474, 25 μM",69.52%
same,percentage of cell death,"[6]; BT474, 50 μM",93.84%
same,inhibitory activity on PI3K/AKT (level of AKT phosphorylation),[1],very strong inhibitors
"O=c1cc(N2CCOCC2)oc2c(-c3ccccc3)cccc12 [LY294002, reference compound]",IC50,AKT phosphorylation,> 10000 nM
same,percentage of cell death,"[3]; MCF-7, 6.25 μM",11.53%
same,percentage of cell death,"[3]; MCF-7, 12.5 μM",11.067%
same,percentage of cell death,"[3]; MCF-7, 25 μM",13.51%
same,percentage of cell death,"[3]; MCF-7, 50 μM",18.89%
same,percentage of cell death,[4]; 6.25 μM,32.33%
same,percentage of cell death,[4]; 12.5 μM,40.42%
same,percentage of cell death,[4]; 25 μM,50.01%
same,percentage of cell death,[4]; 50 μM,55.69%
same,percentage of cell death,"[5]; MDA-MB-453, 0.390625 μM",0%
same,percentage of cell death,"[5]; MDA-MB-453, 0.78125 μM",0%
same,percentage of cell death,"[5]; MDA-MB-453, 1.5625 μM",0%
same,percentage of cell death,"[5]; MDA-MB-453, 3.125 μM",0%
same,percentage of cell death,"[5]; MDA-MB-453, 6.25 μM",17.45%
same,percentage of cell death,"[5]; MDA-MB-453, 12.5 μM",53.74%
same,percentage of cell death,"[5]; MDA-MB-453, 25 μM",76.61%
same,percentage of cell death,"[5]; MDA-MB-453, 50 μM",86.55%
same,percentage of cell death,"[6]; BT474, 6.25 μM",35.35%
same,percentage of cell death,"[6]; BT474, 12.5 μM",48.7%
same,percentage of cell death,"[6]; BT474, 25 μM",62.79%
same,percentage of cell death,"[6]; BT474, 50 μM",77.2%
same,percentage of cell death (cytotoxic effect),Leukemic T-cell line CEM,much lower cell death percentage
O=C(CCCCC1SC[C@@H]2NC(=O)N[C@H]12)NCCCOc1cc(Br)c2c(c1)C=C([N+](=O)[O-])C(c1ccc(Br)cc1)O2 (stereo partly drawn) [Compound 48],binding to mTOR,mTOR,binds to mTOR
same,phosphorylation of AKT at serine 473,mTORC2,decreases
same,phosphorylation of 4EBP1 at threonines 37/46,mTORC1,decreases
"N#CC1=Cc2cc(Br)cc(Br)c2OC1c1ccc(Br)cc1 (stereo not drawn) [Compound 62, 6,8-Dibromo-2-(4-bromophenyl)-2H-chromene-3-carbonitrile]",melting point,,196 to 198 °C
